{"source": "paper PMC6476959", "about": "“Novel 3,4-Dihydroisocoumarins Inhibit Human P-gp and BCRP in Multidrug Resistant Tumors and Demonstrate Substrate Inhibition of Yeast Pdr5” (Frontiers in Pharmacology, 2019)", "key": {"A549 cells": {"test_system": "A549 cells", "test": "CellTiter-Glo cell viability assay (cytotoxicity), A549", "assay_type": "cell-based, human", "conditions": "Homo sapiens, A549; 48 h, mean ± SEM", "procedure": "(§1) The human lung adenocarcinoma cell line A549 was cultured in DMEM medium supplemented with 10% fetal bovine serum (FBS), 100 U/mL penicillin and 100 μg/mL streptomycin. P-gp-expressing human colon adenocarcinoma cells HCT-15 were cultured in RPMI 1640 medium supplemented with 10% FBS, 100 U/mL penicillin and 100 μg/mL streptomycin. BCRP-expressing MCF-7/MX human breast adenocarcinoma cells were cultured in DMEM medium supplemented with 10% FBS, 100 U/mL penicillin and 100 μg/mL streptomycin. MRP1-expressing H69AR human small cell lung cancer cells were cultured in RPMI 1640 medium (ATCC modification) supplemented with 20% FBS, 100 U/mL penicillin and 100 μg/mL streptomycin. All cancer cell lines employed have been systematically characterized regarding their respective ABC transporter expression profile ([Sachs et al., 2019]).\n(§2) Cytotoxic activity of test compounds was analyzed after 48 h using the CellTiter-Glo Luminescent Cell Viability Assay published previously ([Weber et al., 2017]) in 384-well plates with the following cell densities: A549, MCF-7/MX: 2 × 10^3 cells/well; HCT-15: 3 × 10^3 cells/well; H69AR: 5 × 10^3 cells/well. Pipetting was conducted with the CyBi-Well 96-channel simultaneous pipettor (Analytik Jena AG, Jena, Germany). For generation of dose-response curves and calculation of IC50 values, the four-parameter logistic model was applied."}, "HCT-15 cells": {"test_system": "HCT-15 cells", "test": "CellTiter-Glo cell viability assay (cytotoxicity), HCT-15", "assay_type": "cell-based", "conditions": "Homo sapiens, 48 h, P-gp expressing, mean ± SEM", "procedure": "as §1, §2"}, "MCF-7/MX cells": {"test_system": "MCF-7/MX cells", "test": "CellTiter-Glo cell viability assay (cytotoxicity), MCF-7/MX", "assay_type": "cell-based", "conditions": "Homo sapiens, MCF7/MX; 48 h, BCRP-expressing, mean ± SEM", "procedure": "as §1, §2"}, "H69AR cells": {"test_system": "H69AR cells", "test": "CellTiter-Glo cell viability assay (cytotoxicity), H69AR", "assay_type": "cell-based", "conditions": "Homo sapiens, 48 h, MRP1-expressing, mean ± SEM", "procedure": "as §1, §2"}, "P-gp": {"target": "T1, P-gp (Homo sapiens, UniProt P08183)", "T1 construct": "endogenous in cells; host or cells: HCT-15 human colon adenocarcinoma cells", "test": "P-gp transport assay (calcein-AM) in HCT-15 cells", "assay_type": "cell-based", "procedure": "The transport of calcein-AM by P-gp and its modulation by test compounds was analyzed in the P-gp-expressing HCT-15 cell line. 5 × 10^4 cells were seeded in black 96-well plates and incubated at 37°C and 5% CO2 for 24 h. The culture medium was removed and replaced by Hank’s balanced salt solution supplemented with 10 mM HEPES. Test compounds, 2.5 μM PSC833 (positive control) or 0.5% DMSO (negative control) were added in triplicates and incubated for 30 min at 37°C and 5% CO2. The substrate calcein-AM was added (final concentration 0.5 μM) and the fluorescence (excitation 485 nm, emission 520 nm) was measured over 3 h with the Infinite m1000 pro microplate reader (Tecan Group AG, Männedorf, Switzerland) at 37°C. The transport activity of P-gp was analyzed by determining the slope of the linear part of the fluorescence-time curve (0–30 min) using linear regression. Normalization of the data to PSC833 (100% inhibition) and DMSO (0% inhibition) was performed."}, "BCRP": {"target": "T2, BCRP (Homo sapiens, UniProt Q9UNQ0)", "T2 construct": "endogenous in cells; host or cells: MCF-7/MX human breast adenocarcinoma cells (mitoxantrone-selected)", "T2 sequence (Q9UNQ0 1-655)": "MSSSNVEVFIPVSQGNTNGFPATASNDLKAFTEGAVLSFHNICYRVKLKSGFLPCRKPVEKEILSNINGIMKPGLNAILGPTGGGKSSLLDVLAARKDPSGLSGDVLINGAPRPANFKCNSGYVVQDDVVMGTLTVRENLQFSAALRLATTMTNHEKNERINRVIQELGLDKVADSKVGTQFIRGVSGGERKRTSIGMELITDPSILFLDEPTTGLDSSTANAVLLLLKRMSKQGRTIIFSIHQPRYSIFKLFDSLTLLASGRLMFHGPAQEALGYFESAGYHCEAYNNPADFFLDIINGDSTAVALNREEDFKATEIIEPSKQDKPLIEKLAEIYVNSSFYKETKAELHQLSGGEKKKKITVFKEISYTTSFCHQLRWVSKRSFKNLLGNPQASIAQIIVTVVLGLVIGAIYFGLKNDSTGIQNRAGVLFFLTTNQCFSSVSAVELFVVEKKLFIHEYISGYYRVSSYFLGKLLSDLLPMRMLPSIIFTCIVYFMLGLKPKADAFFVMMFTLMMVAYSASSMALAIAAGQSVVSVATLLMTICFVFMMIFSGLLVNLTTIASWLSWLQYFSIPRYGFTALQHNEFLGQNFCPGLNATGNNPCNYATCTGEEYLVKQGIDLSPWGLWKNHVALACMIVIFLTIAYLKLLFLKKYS", "test": "BCRP transport assay (Hoechst 33342) in MCF-7/MX cells", "assay_type": "cell-based", "procedure": "Breast cancer resistance protein transport activity was determined in the BCRP-expressing MCF-7/MX cell line. Hoechst 33342 was applied as transporter substrate and 1 μM Ko143 as positive control or 0.5% DMSO as negative control and the assay was performed according to the P-gp assay. Fluorescence was measured at an excitation wavelength of 355 nm and emission wavelength of 460 nm. The transport activity of BCRP was analyzed by determining the plateau of the fluorescence-time curve by using non-linear regression (one-phase exponential fit). Normalization of the data to Ko143 (100% inhibition) and DMSO (0% inhibition) was performed."}, "Pdr5": {"target": "T3, Pdr5 (Saccharomyces cerevisiae, UniProt P33302)", "T3 construct": "effect on (A) the transport activity of Pdr5 WT and (B) their effect on the ATPase activity; made in house; host or cells: S. cerevisiae YRE1001 (pdr1-3 background), isolated plasma membranes", "test": "Pdr5 ATPase assay (oligomycin-sensitive) in plasma membrane preparations", "assay_type": "biochemical", "conditions": "highest concentrations (10 mM), in comparison to Pdr5 WT in the absence of any compound", "procedure": "Saccharomyces cerevisiae cells expressing Pdr5 WT or the E1036Q (EQ) mutant were cultured to an OD600 of 1.5 in YPD-media at 25°C. The nitrogen source was replenished by addition of a 10th volume of 5x YP (50 g/l yeast extract, 100 g/l peptone). The cells were grown to an OD of 3.5 and harvested (5000 ×g at 4°C for 15 min). The isolation of Pdr5 containing PMs was performed as described ([Kolaczkowski et al., 1996]; [Ernst et al., 2008]).\nOligomycin (OM)-sensitive ATPase activity was measured from 0.8 μg PM containing Pdr5 incubated with 2 mM ATP, 5 mM MgCl2 in 270 mM TRIS-glycine buffer (pH 9.5) and 2.5 μl of the test compounds or DMSO as a control in a total volume of 100 μl. To reduce the background activities, 0.2 mM ammonium molybdate, 10 mM NaN3 and 50 mM KNO3, respectively, were added ([Dufour et al., 1988]; [Goffeau and Dufour, 1988]). In a second assay, OM (20 μg/ml) was added to an otherwise identical setup. After incubation at 30°C for 20 min, the reaction was stopped by adding 25 μl of the reaction to 175 μl 40 mM H2SO4. The amount of released inorganic phosphate was determined by a colometric assay in 96-well plates ([Goffeau and Dufour, 1988]; [Decottignies et al., 1994]; [Wada et al., 2002]). The difference of both assays ( ± OM) corresponds to the specific ATPase activity of Pdr5 ([Ernst et al., 2008])."}, "[1]": {"test": "Solubility observation in transporter assays", "assay_type": "physicochemical", "conditions": "could not be employed at 50 μM"}}}
{"smiles": "O=c1oc2c(O)c(O)cc3c(=O)oc4c(O)c(O)cc1c4c23", "note": "[Ellagic acid, ellagic acid]", "values": [{"measurement": "IC50", "setting": "A549 cells", "result": "> 50", "unit": "µM"}, {"measurement": "IC50", "setting": "HCT-15 cells", "result": "> 50", "unit": "µM"}, {"measurement": "IC50", "setting": "MCF-7/MX cells", "result": "> 50", "unit": "µM"}, {"measurement": "IC50", "setting": "H69AR cells", "result": "> 50", "unit": "µM"}, {"measurement": "Inhibition of P-gp (in words)", "setting": "P-gp", "result": "did not display any inhibitory activity"}, {"measurement": "Inhibition of BCRP (in words)", "setting": "BCRP", "result": "did not display any inhibitory activity"}, {"measurement": "ATPase activity of Pdr5 WT inhibited to (initial screen)", "setting": "Pdr5", "result": 56, "unit": "%"}, {"measurement": "ATPase activity of Pdr5 WT inhibited to (initial screen)", "setting": "Pdr5; listed as ellagic acid", "result": 50, "unit": "%"}, {"measurement": "Solubility (in words)", "setting": "[1]", "result": "low solubility"}]}
